Results taken from article PMC6470603, “Design and Synthesis of Matrine Derivatives as Novel Anti-Pulmonary Fibrotic Agents via Repression of the TGFβ/Smad Pathway” (Molecules, 2019).

Legend:
[1] = tested on: fibronectin in MRC-5 cells; assay: Immunofluorescence assay, fibronectin expression; type: cell-based, human; settings: 10 μM, 48 h, 10 ng/mL TGF-β1, mean fluorescence intensity
Procedure: Next, we evaluated the inhibitory effect of 3f against fibronectin expression. Fibronectin is another major constituent of ECM and plays a critical role in fibrogenesis by promoting the migration, proliferation, and adhesion of fibroblasts.
(§1) MRC-5 cells were seeded on 0.2% gelatin-coated glass coverslips and treated with or without 10 ng/mL TGF-β1 in the presence of vehicle or 10 μM 3f for 48 h. The cells were washed with PBS and fixed in freshly prepared 4% paraformaldehyde (PFA) at room temperature for 10 min. The cells were then permeabilized with 0.25% Triton X-100 for 10 min before 30 min of blocking by PBS solution supplemented with 1% BSA and 22.5 mg/mL glycine (the permeabilization was omitted for S100A4 and TGFβRI staining). The cells were incubated with primary antibody overnight at 4 °C and labeled with AlexaFluor 488-conjugated or Dylight 488-conjugated secondary antibody. […] The mean fluorescence intensity (MFI) of each photo was calculated by ImageJ. […]

Smad2/3 in MRC-5 cells = assay: Immunofluorescence assay, cellular localization of Smad2/3; type: cell-based, human; settings: 10 μM, 48 h, 10 ng/mL TGF-β1
Text: Small mothers against decapentaplegic homologs (Smad) are key mediators and regulators of TGFβ signaling. The binding of TGF-β1 to TGFβ receptors leads to the phosphorylation of Smad2/3 complex, which then translocate into nucleus to enhance gene transcription by cooperating with DNA transcription factors. Inhibition of the nuclear translocation of Smad2/3 could attenuate the transcription of profibrotic genes such as collagens and α-SMA. Therefore, we investigated the cellular localization of Smad2/3 by immunofluorescence assay. As depicted in Figure 6A, Smad2/3 predominately localize in cytoplasm under normal conditions, but translocate into nucleus upon TGF-β1 stimulation.
as §1, with “staining).” for “staining). The cells were incubated with primary antibody overnight at 4 °C and labeled with AlexaFluor 488-conjugated or Dylight 488-conjugated secondary antibody.”

[2] = tested on: Collagen type I alpha-1 chain (COL1A1) in MRC-5 cells; assay: Immunofluorescence assay, COL1A1 expression; type: cell-based, human; settings: 10 μM, 48 h, 10 ng/mL TGF-β1, mean fluorescence intensity
Procedure: (§2) Due to the significance of collagen in IPF pathogenesis, we first evaluated the inhibitory effect of key compound 3f against collagen accumulation. Immunofluorescence staining was employed to investigate collagen protein expression.
as §1

[3] = tested on: TGF-β receptor type I (TGFβRI) in MRC-5 cells; assay: Immunofluorescence assay, TGFβRI expression; type: cell-based, human; settings: 10 μM, 48 h, 10 ng/mL TGF-β1, mean fluorescence intensity
Text: Another emerging effect of Smad which acts as the amplifier of TGF-β signaling also contribute to fibrotic diseases. The nuclear translocation of Smad3 leads to the activation of the miR-433 promotor region. miR-433 promotes the decrease of antizyme inhibitor I (Azin1) and eventually results in depletion of polyamine, which causes the upregulation of expression level of TGF-β receptor type I (TGFβRI) and TGF-β1. This series of signaling creates a positive-feedback loop which amplify the TGFβ signaling.
as §1

[4] = Cytotoxicity assay (CCK-8); settings: human, MRC-5 cells (human fetal lung fibroblasts)
Procedure: (§4) Cytotoxicity of all compounds were also determined against MRC-5 cells, so as to calculate selectivity index (SI, CC50/IC50).
(§5) MRC-5 cells in passage between 21 to 26 were used for experiments.
(§6) MRC-5 cells were incubated with different concentrations of compounds for 48 h, and then 10 μL of CCK-8 solution were added to each well. The cells were incubated at 37 °C for another 3 h before determining the OD values at 492 nm. DMSO at 0.1% v/v final concentration was used to solubilize the test compounds, except for compound 3b, 3c, and 3e, where 1% v/v DMSO was used to ensure complete solubilization.

MRC-5 fibroblasts = assay: Scratch (wound healing) assay, TGF-β1-induced fibroblast migration; type: cell-based, human; settings: 10 μM, 10 ng/mL TGF-β1, 24 h (TGF-β1 alone 85.0%)
Procedure: Fibroblast migration is the key event in pulmonary fibrogenesis. […] Inhibition of lung fibroblasts migration is a promising potential therapeutic target for IPF. We performed wound healing assay to investigate the inhibitory effect of 3f and matrine against fibroblast migration (Figure 7).
MRC-5 cells were seeded on 6-well plates and allowed to reach confluence for 48 h. The cell monolayer was gently scratched with a 1 mL pipette tip across the center of the well. After scratching, the cells were washed twice with medium to remove detached cells. The cells were then treated with or without 10 ng/mL TGF-β1 in the presence of vehicle or 10 μM 3f for 24 h. The gap area in wound region was quantitatively evaluated using ImageJ [30] and MRI wound healing tool plugin [31].

[5] = tested on: Collagen type III alpha-1 chain (COL3A1) in MRC-5 cells; assay: Immunofluorescence assay, COL3A1 expression; type: cell-based, human; settings: 10 μM, 48 h, 10 ng/mL TGF-β1, mean fluorescence intensity
Procedure: as §2, §1

[6] = tested on: alpha-smooth muscle actin (α-SMA) in MRC-5 cells; assay: Immunofluorescence assay, α-SMA expression (fibroblast-to-myofibroblast transition); type: cell-based, human; settings: 10 μM, 48 h, 10 ng/mL TGF-β1, mean fluorescence intensity
Text: (§3) Myofibroblasts, a further differentiated subset of fibroblasts, are primary effector cells for collagen synthesis in fibrotic disorders. Inhibition of fibroblast differentiation is an important therapeutic target for IPF treatment. To examine whether 3f could inhibit TGF-β1-induced fibroblast-to-myofibroblast transition, we investigated the expression level of alpha-smooth muscle actin (α-SMA) and S100A4, the key markers which distinguish myofibroblasts from their precursor fibroblasts. We observed dramatic upregulation of myofibroblast markers in response to TGF-β1 stimulation (774.9% and 537.7% for α-SMA and S100A4, respectively), characterizing a strong expression of myofibroblast phenotype.
as §1, with “staining).” for “staining). The cells were incubated with primary antibody overnight at 4 °C and labeled with AlexaFluor 488-conjugated or Dylight 488-conjugated secondary antibody.”

[7] = tested on: TGF-β1 induced total collagen accumulation in MRC-5 cells; assay: Sircol collagen assay: inhibition of TGF-β1-induced total collagen accumulation; type: cell-based, human; settings: for IC50: Homo sapiens, MRC5, 10 ng/mL TGF-β1, 48 h, Sircol collagen assay; for SI, selectivity index (SI = CC50/IC50): MRC-5 cells
Procedure: Higher SI values indicates better safety profile.
MRC-5 cells in 1 × 10^5 cells/mL density were seeded in TC treated 96-well plates and allowed to reach confluence for 48 h. The cells were then starved using MEM-NEAA containing 0.2% BSA for 24 h. After starvation, the medium was changed to MEM-NEAA supplemented with 0.2% BSA, 100 μM L-Proline, 100 μM Ascorbic acid, with or without 10 ng/mL TGF-β1 (Peprotech) in the presence of vehicle or different concentrations of compounds. After 48 h incubation, the MRC-5 cells were washed with phosphate buffered saline (PBS) and fixed in −20 °C precooled methanol for 10 min. The cells were than washed with PBS before incubation in 0.1% PSR staining solution (0.1% Sirus red in saturated water solution of picric acid) for 1 h. The staining solution was then removed and the cells were washed with 0.1% acetic acid for three times. 200 μL of 0.1 mol/L sodium hydroxide solution were added to each well and the plates were placed on a rocking platform for 1 h. The optical density (OD) values at 550 nm were determined with an Infinite 2000 spectrophotometer.

S100A4 in MRC-5 cells = assay: Immunofluorescence assay, S100A4 expression (fibroblast-to-myofibroblast transition); type: cell-based, human; settings: 10 μM, 48 h, 10 ng/mL TGF-β1, mean fluorescence intensity
Text: as §3
as §1, with “staining).” for “staining). The cells were incubated with primary antibody overnight at 4 °C and labeled with AlexaFluor 488-conjugated or Dylight 488-conjugated secondary antibody.”

in vitro = settings: human
Procedure: as §4, §5, §6

| SMILES | reduction of expression level of fibronectin comparing to TGF-β1 stimulation group [1] [%] | effect on cytoplasm-to-nuclear translocation of Smad2/3 (Smad2/3 in MRC-5 cells) | decrease in expression level of COL1A1 relative to TGF-β1 stimulation group [2] [%] | reduction of TGF-β1-induced upregulation of TGFβRI expression level [3] [%] | CC50 at 48 h [4] [µM] | closure of wound area over 24 h period (MRC-5 fibroblasts) [%] | decrease in expression level of COL3A1 relative to TGF-β1 stimulation group [5] [%] | downregulation in expression level of α-SMA compared to TGF-β1 stimulation group [6] [%] | IC50 [7] [µM] | SI, selectivity index (SI = CC50/IC50) [7] | downregulation in expression level of S100A4 compared to TGF-β1 stimulation group (S100A4 in MRC-5 cells) [%] | CC50 at 48 h (in vitro) [µM] |
| --- | --- | --- | --- | --- | --- | --- | --- | --- | --- | --- | --- | --- |
| O=C1CC(n2ccc3cc(Cl)ccc32)CC2C3CCCN4CCCC(CN12)C34 (centres unmarked) [3f, 13-(5-chloro-1H-indol-1-yl)-matrine] | 40.0 | significantly inhibit the cytoplasm-to-nuclear translocation of Smad2/3 | 46.2 | 46.7 | 26.7 ± 0.7 | 37.7 | 31.1 | 45.8 | 3.3 ± 0.3 | 8.0 | 17.7 |  |
| O=C1C=CC[C@@H]2[C@H]3CCCN4CCC[C@@H](CN12)[C@@H]34 [Sophocarpine, reference compound] |  |  |  |  |  |  |  |  | 1190 ± 135 | 2.7 |  | 3160 ± 355 |
